Among the data in patent publication US7709492B2, “Pyrazolo-[4,3-e]-1,2,4-triazolo-[1,5-c]-pyrimidine adenosine A2a receptor antagonists” (Schering Corporation, priority 2004, dated 2010) are Ki values, retold here.

The experiment has as its target T1, Human A2a Adenosine Receptor (Homo sapiens, UniProt P29274).
T1 construct: purchased Receptor Biology, Inc., Beltsville, Md; RB-HA2a
The experiment is described as follows: Human adenosine A2a receptor competition binding assay. The conditions noted are these: [3H]-SCH 58261 displacement, human A2a membranes. Here is the method: Human Adenosine A2a and A1 Receptor Competition Binding Assay Protocol
A2a: Human A2a Adenosine Receptor membranes, Catalog #RB-HA2a, Receptor Biology, Inc., Beltsville, Md. Dilute to 17 μg/100 μl in membrane dilution buffer (see below).
Membrane dilution buffer: Dulbecco's Phosphate Buffered Saline (Gibco/BRL)+10 mM MgCl2.
Compound Dilution Buffer: Dulbecco's Phosphate Buffered Saline (Gibco/BRL)+10 mM MgCl2 supplemented with 1.6 mg/ml methyl cellulose and 16% DMSO. Prepared fresh daily.
A2a: [3H]-SCH 58261, custom synthesis, AmershamPharmacia Biotech, Piscataway, N.J. Stock is prepared at 1 nM in membrane dilution buffer. Final assay concentration is 0.5 nM.
A2a: To determine non-specific binding, add 100 nM CGS 15923 (RBI, Natick, Mass.). Working stock is prepared at 400 nM in compound dilution buffer.
Prepare 1 mM stock solutions of compounds in 100% DMSO. Dilute in compound dilution buffer. Test at 10 concentrations ranging from 3 μM to 30 pM. Prepare working solutions at 4× final concentration in compound dilution buffer.
Perform assays in deep well 96 well plates. Total assay volume is 200 μl. Add 50 μl compound dilution buffer (total ligand binding) or 50 μl CGS 15923 working solution (A2a non-specific binding) or 50 μl, NECA working solution (A1 non-specific binding) or 50 μl of drug working solution. Add 50 μl ligand stock ([3H]-SCH 58261 for A2a, [3H]-DPCPX for A1). […]

T1 sequence (P29274 whole entry): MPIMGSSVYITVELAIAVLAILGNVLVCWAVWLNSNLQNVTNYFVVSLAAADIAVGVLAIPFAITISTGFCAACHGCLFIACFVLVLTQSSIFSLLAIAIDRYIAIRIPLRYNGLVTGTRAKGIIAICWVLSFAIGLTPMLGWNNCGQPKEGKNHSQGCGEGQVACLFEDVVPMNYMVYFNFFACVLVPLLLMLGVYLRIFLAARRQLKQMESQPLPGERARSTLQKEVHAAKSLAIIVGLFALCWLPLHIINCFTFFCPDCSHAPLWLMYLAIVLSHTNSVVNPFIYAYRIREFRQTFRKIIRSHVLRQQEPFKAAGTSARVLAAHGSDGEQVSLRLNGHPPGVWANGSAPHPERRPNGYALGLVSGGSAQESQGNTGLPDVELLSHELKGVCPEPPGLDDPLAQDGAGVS

One may read the Ki as a measure of affinity in units of concentration, obtained from inhibition or displacement. In turn, `Nc1nc2c(cnn2CCN2CCN(c3cc(-c4ncco4)ccc3F)CC2)c2nc(-c3ccccn3)nn12` [Example 12-31] displayed a Ki of 0.3 nM.
